Assay results: PubChem BioAssay AID2060906 (Molecular Pharmacology Branch, DTP, NCI, 2025)

Test system: 485176-168-R4-J1-PDC complex spheroid growth
Assay: Anticancer human tumor 485176-168-R4-J1-PDC patient-derived pancreatic adenocarcinoma cell line growth inhibition [RAS]
Conditions: for IC50: curve of first compound; for viability, T/C: stronger effect = lower value
Method in brief: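 Tumour cells grown as complex spheroids with HUVEC endothelial cells and mesenchymal stem cells, treated with RAS pathway inhibitor combinations. Each agent spans half-log steps from near clinical Cmax, or 10 microM where Cmax is unknown.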
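Further: spheroids exposed to compounds for seven days before readout.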
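Wherever viability, T/C is given: luminescence viability expressed relative to DMSO vehicle wells set as 100%.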

## CC1(O)CCCC1n1c(=O)c(C(F)F)cc2cnc(NC3CCN(S(C)(=O)=O)CC3)nc21 (configuration not stated) + CCn1c(-c2cccnc2C(C)OC)c2c3cc(ccc31)N1CCOC(CC(NC(=O)C(C(C)C)N(C)C(=O)C3(F)CCN(C(=O)C#CC(C)(C)N(C)C)CC3)C(=O)N3CCCC(N3)C(=O)OCC(C)(C)C2)C1
Second compound 0.000949 µM
  IC50: 3.41 µM
Second compound 0.003 µM
  IC50: 3.17 µM
Second compound 0.00949 µM
  IC50: 3.39 µM
Second compound 0.03 µM
  IC50: 3.31 µM
Second compound 0.0949 µM
  IC50: 3.32 µM
Second compound 0.3 µM
  IC50: 1.68 µM
Second compound 0.000949 µM, first compound 0.0316 µM
  viability, T/C: 114%
Second compound 0.000949 µM, first compound 0.1 µM
  viability, T/C: 75%
Second compound 0.000949 µM, first compound 0.316 µM
  viability, T/C: 70.6%
Second compound 0.000949 µM, first compound 1 µM
  viability, T/C: 78.2%
Second compound 0.000949 µM, first compound 3.16 µM
  viability, T/C: 60.8%
Second compound 0.000949 µM, first compound 10 µM
  viability, T/C: 4.58%
Second compound 0.003 µM, first compound 0.0316 µM
  viability, T/C: 103%
Second compound 0.003 µM, first compound 0.1 µM
  viability, T/C: 92.7%
Second compound 0.003 µM, first compound 0.316 µM
  viability, T/C: 76.6%
Second compound 0.003 µM, first compound 1 µM
  viability, T/C: 72.8%
Second compound 0.003 µM, first compound 3.16 µM
  viability, T/C: 57%
Second compound 0.003 µM, first compound 10 µM
  viability, T/C: 3.48%
Second compound 0.00949 µM, first compound 0.0316 µM
  viability, T/C: 90.4%
Second compound 0.00949 µM, first compound 0.1 µM
  viability, T/C: 74.7%
Second compound 0.00949 µM, first compound 0.316 µM
  viability, T/C: 60.6%
Second compound 0.00949 µM, first compound 1 µM
  viability, T/C: 69.8%
Second compound 0.00949 µM, first compound 3.16 µM
  viability, T/C: 57%
Second compound 0.00949 µM, first compound 10 µM
  viability, T/C: 3.15%
Second compound 0.03 µM, first compound 0.0316 µM
  viability, T/C: 110%
Second compound 0.03 µM, first compound 0.1 µM
  viability, T/C: 78.7%
Second compound 0.03 µM, first compound 0.316 µM
  viability, T/C: 87.2%
Second compound 0.03 µM, first compound 1 µM
  viability, T/C: 65.9%
Second compound 0.03 µM, first compound 3.16 µM
  viability, T/C: 63.5%
Second compound 0.03 µM, first compound 10 µM
  viability, T/C: 2.51%
Second compound 0.0949 µM, first compound 0.0316 µM
  viability, T/C: 89.2%
Second compound 0.0949 µM, first compound 0.1 µM
  viability, T/C: 76.2%
Second compound 0.0949 µM, first compound 0.316 µM
  viability, T/C: 69.6%
Second compound 0.0949 µM, first compound 1 µM
  viability, T/C: 68.1%
Second compound 0.0949 µM, first compound 3.16 µM
  viability, T/C: 56.1%
Second compound 0.0949 µM, first compound 10 µM
  viability, T/C: 2.02%
Second compound 0.3 µM, first compound 0.0316 µM
  viability, T/C: 78.7%
Second compound 0.3 µM, first compound 0.1 µM
  viability, T/C: 70.5%
Second compound 0.3 µM, first compound 0.316 µM
  viability, T/C: 58.1%
Second compound 0.3 µM, first compound 1 µM
  viability, T/C: 54.6%
Second compound 0.3 µM, first compound 3.16 µM
  viability, T/C: 47.8%
Second compound 0.3 µM, first compound 10 µM
  viability, T/C: 3.3%
